Data from patent US20050032873A1, “3-Amino chroman and 2-amino tetralin derivatives” (Wyeth, priority 2003, published 2005).
pEC50, pIC50, pKi: −log10 of the molar value. Where two headings read alike, the source gives them in different places.

Experiments:
serotonin transporter = target: T1, serotonin transporter (Rattus norvegicus, UniProt P31652); assay: 5-HT transporter affinity: displacement of 3H-paroxetine from male rat cortical membranes; format: binding; conditions: displacement of 3H-paroxetine, male rat cortical membranes; for pKi: read-out: 5-HT Transporter Affinity Ki
T1 construct: displace ^3H-paroxetine from male rat cortical membranes; from tissue; host or cells: male rat cortical membranes

[1] = target: T2, cloned human 5-HT1A receptors (Homo sapiens, UniProt P08908); assay: 35S-GTPγS binding assay, 5-HT1A function; format: biochemical; conditions: for pIC50: antagonist potency, reversal of 8-OH-DPAT, read-out: 5-HT1A Function GTPγS IC50; for pEC50: agonist potency
T2 construct: expressed in transfected cells
T2 sequence (P08908 1-422): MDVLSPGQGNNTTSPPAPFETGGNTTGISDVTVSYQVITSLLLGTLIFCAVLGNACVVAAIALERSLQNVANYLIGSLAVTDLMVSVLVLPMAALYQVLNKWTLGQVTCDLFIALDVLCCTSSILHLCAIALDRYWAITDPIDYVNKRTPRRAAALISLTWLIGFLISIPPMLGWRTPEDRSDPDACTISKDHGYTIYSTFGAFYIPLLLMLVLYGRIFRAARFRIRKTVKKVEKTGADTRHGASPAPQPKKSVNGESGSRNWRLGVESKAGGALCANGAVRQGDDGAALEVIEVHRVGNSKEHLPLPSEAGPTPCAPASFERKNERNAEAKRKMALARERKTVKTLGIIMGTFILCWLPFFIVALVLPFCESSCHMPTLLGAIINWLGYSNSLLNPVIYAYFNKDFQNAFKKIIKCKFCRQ
From the text: The agonist or antagonist activity at 5-HT1A receptors was established by using two different assays. […] Agonists produce an increase in binding whereas antagonists produce no increase but rather reverse the effects of the standard agonist 8-OH-DPAT. The test compound's maximum stimulatory effect is represented as the Emax, while its potency is defined by the EC50. The test compound's maximum inhibitory effect is represented as the Imax, while its potency is defined by the IC50. The second assay measured cAMP accumulation upon binding of the ligand to the 5-HT1A receptor. […] The test compound's maximum stimulatory or inhibitory effect is represented as the Emax while its potency is defined by either IC50 for an antagonist or EC50 for an agonist. [^3H]-8-OH-DPAT was used to determine maximum agonist or antagonist response in both functional assays.

5-HT1A receptor [2] = target: T3, 5-HT1A receptor (Homo sapiens, UniProt P08908); assay: cAMP accumulation assay, 5-HT1A function; format: cell-based; conditions: for pEC50: cells marked EC50 (agonist); for Emax: in brackets after EC50 or IC50, read-out: 5-HT1A Function cAMP (Emax); for pIC50: cells marked IC50 (antagonist), read-out: 5-HT1A Function cAMP IC50
T3 sequence (P08908 1-422): T2 sequence (P08908 1-422)

5-HT1A receptor [3] = target: T3, 5-HT1A receptor; assay: 5-HT1A receptor affinity: displacement of [3H] 8-OH-DPAT; format: binding; design: expressed in transfected cells; conditions: displacement of [3H] 8-OH-DPAT, CHO cells stably transfected with human 5-HT1A receptors; for pKi: read-out: 5-HT1A Receptor Affinity Ki
[4] = maximum inhibitory effect, in brackets after IC50, read-out: 5-HT1A Function GTPγS (Imax)
[5] = maximum stimulatory effect, in brackets after EC50, read-out: 5-HT1A Function GTPγS (Emax)

T1 sequence (P31652 whole entry): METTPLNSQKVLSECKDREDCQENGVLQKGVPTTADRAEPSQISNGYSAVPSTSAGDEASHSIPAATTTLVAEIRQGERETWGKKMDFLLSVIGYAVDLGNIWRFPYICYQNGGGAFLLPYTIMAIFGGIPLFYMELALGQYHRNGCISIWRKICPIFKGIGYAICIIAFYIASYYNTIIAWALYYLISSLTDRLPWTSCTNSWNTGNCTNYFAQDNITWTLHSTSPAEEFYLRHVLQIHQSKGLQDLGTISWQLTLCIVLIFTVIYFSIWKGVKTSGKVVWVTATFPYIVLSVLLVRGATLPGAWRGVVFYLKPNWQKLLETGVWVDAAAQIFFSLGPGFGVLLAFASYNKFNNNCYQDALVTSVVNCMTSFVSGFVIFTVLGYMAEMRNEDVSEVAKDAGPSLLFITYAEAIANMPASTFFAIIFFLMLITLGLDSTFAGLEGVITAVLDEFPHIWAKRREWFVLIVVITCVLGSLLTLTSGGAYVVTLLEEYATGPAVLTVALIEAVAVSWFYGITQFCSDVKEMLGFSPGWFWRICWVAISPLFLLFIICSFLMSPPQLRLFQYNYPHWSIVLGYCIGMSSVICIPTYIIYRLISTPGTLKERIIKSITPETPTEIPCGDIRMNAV

Structure (SMILES) | pKi (serotonin transporter) | pIC50 [1] | Emax [1, 4] [%] | pEC50 (5-HT1A receptor [2]) | Emax (5-HT1A receptor [2]) [%] | pKi (5-HT1A receptor [3]) | pEC50 [1] | Emax [1, 5] [%] | pIC50 (5-HT1A receptor [2]) | Ki (serotonin transporter; 5-HT Transporter Affinity Ki (nM)) [nM] | Ki (5-HT1A receptor [3]; 5-HT1A Receptor Affinity Ki (nM)) [nM]
COc1cccc2c1CC(N(CCCc1c[nH]c3ccc(F)cc13)C1CCC1)CO2 (stereo not shown) [Compound 34, N-cyclobutyl-N-[3-(5-fluoro-1H-indol-3-yl)propyl]-5-methoxychroman-3-amine] | 7.89 | 5.67 | 76 | 7.21 | 37 | 7.81 | – | – | – | – | –
COc1cccc2c1C[C@@H](N(CCCc1c[nH]c3ccc(F)cc13)C1CCC1)CO2 [Compound 35, (3R)-N-cyclobutyl-N-[3-(5-fluoro-1H-indol-3-yl)propyl]-5-methoxy-3,4-dihydro-2H-chromen-3-amine] | 7.39 | 6.31 | 80 | – | 0 | 8.67 | – | – | 7.63 | – | –
COc1cccc2c1CC(N(CCCc1c[nH]c3ccc(F)cc13)CC1CC1)CO2 (stereo not shown) [Compound 37, N-(cyclopropylmethyl)-N-[3-(5-fluoro-1H-indol-3-yl)propyl]-N-(5-methoxy-3,4-dihydro-2H-chromen-3-yl)amine] | 8.37 | – | – | 7.85 | 91 | 8.77 | 6.84 | 88 | – | – | –
COc1cccc2c1CC(N(CCCc1cn(C)c3ccc(F)cc13)CC1CC1)CO2 (stereo not shown) [Compound 38, N-(cyclopropylmethyl)-N-[3-(5-fluoro-1-methyl-1H-indol-3-yl)propyl]-N-(5-methoxy-3,4-dihydro-2H-chromen-3-yl)amine] | 7.54 | – | – | 8.05 | 97.5 | 9.82 | 7.59 | 90 | – | – | –
COc1cccc2c1CC(N(CCCc1c[nH]c3ccc(F)cc13)C1CCCC1)CO2 (stereo not shown) [Compound 39, N-cyclopentyl-N-[3-(5-fluoro-1H-indol-3-yl)propyl]-N-(5-methoxy-3,4-dihydro-2H-chromen-3-yl)amine] | 7.16 | – | – | 6.97 | 70.5 | 7.44 | 5.23 | 100 | – | – | –
COc1cccc2c1CC(N(CCCc1c[nH]c3ccc(F)cc13)C(C)C)CO2 (stereo not shown) [Compound 40, N-[3-(5-fluoro-1H-indol-3-yl)propyl]-N-isopropyl-N-(5-methoxy-3,4-dihydro-2H-chromen-3-yl)amine] | 8.42 | 5.42 | 46 | – | 0 | 7.09 | – | – | – | – | –
COc1cccc2c1CC(N(CCCc1c[nH]c3ccc(F)cc13)C1CC1)CO2 (stereo not shown) [Compound 41, N-cyclopropyl-N-[3-(5-fluoro-1H-indol-3-yl)propyl]-N-(5-methoxy-3,4-dihydro-2H-chromen-3-yl)amine] | 6.83 | – | – | 6.79 | 78.5 | 7.24 | 5.46 | 84 | – | – | –
CCCN(CCc1c[nH]c2ccc(F)cc12)C1CCc2cccc(OC)c2C1 (stereo not shown) [Compound 48, N-[2-(5-fluoro-1H-indol-3-yl)ethyl]-N-(8-methoxy-1,2,3,4-tetrahydronaphthalen-2-yl)-N-propylamine] | 8.19 | – | – | 7.46 | 89 | 8.22 | 7.62 | 93 | – | – | –
CCN(CCc1c[nH]c2ccc(F)cc12)C1CCc2cccc(OC)c2C1 (stereo not shown) [Compound 49, N-ethyl-N-[2-(5-fluoro-1H-indol-3-yl)ethyl]-N-(8-methoxy-1,2,3,4-tetrahydronaphthalen-2-yl)amine] | – | – | – | 7.45 | 93 | – | 7.82 | 88 | – | 6.5 | 7.62

More lines, main results first:

pKi (serotonin transporter) | pIC50 [1] | Emax [1, 4] [%] | pEC50 (5-HT1A receptor [2]) | Emax (5-HT1A receptor [2]) [%] | pKi (5-HT1A receptor [3]) | pEC50 [1] | Emax [1, 5] [%] | Structure (SMILES) | pIC50 (5-HT1A receptor [2]) | Ki (serotonin transporter; 5-HT Transporter Affinity Ki (nM)) [nM] | Ki (5-HT1A receptor [3]; 5-HT1A Receptor Affinity Ki (nM)) [nM]
7.27 | – | – | 6.81 | 72.5 | 7.30 | 6.12 | 84 | COc1cccc2c1CC(N(CCCc1c[nH]c3ccc(F)cc13)CC1CCC1)CO2 (stereo not shown) [Compound 42, N-(cyclobutylmethyl)-N-[3-(5-fluoro-1H-indol-3-yl)propyl]-N-(5-methoxy-3,4-dihydro-2H-chromen-3-yl)amine] | – | – | –
7.39 | – | – | 7.97 | 91.5 | 8.99 | 7.29 | 100 | COc1cccc2c1CC(N(CCCc1c[nH]c3ccccc13)CC1CC1)CO2 (stereo not shown) [Compound 43, N-(cyclopropylmethyl)-N-[3-(1H-indol-3-yl)propyl]-N-(5-methoxy-3,4-dihydro-2H-chromen-3-yl)amine] | – | – | –
7.33 | 6.62 | 59 | 7.15 | 80.5 | 7.67 | – | – | COc1cccc2c1CC(N(CCCc1c[nH]c3ccccc13)C1CCC1)CO2 (stereo not shown) [Compound 44, N-cyclobutyl-N-[3-(1H-indol-3-yl)propyl]-N-(5-methoxy-3,4-dihydro-2H-chromen-3-yl)amine] | – | – | –
8.28 | – | – | 7.11 | 89.5 | 8.67 | 7.25 | 72 | COc1cccc2c1CC(N(CCCc1c[nH]c3ccc(C#N)cc13)CC1CC1)CO2 (stereo not shown) [Compound 45, 3-{3-[(cyclopropylmethyl)(5-methoxy-3,4-dihydro-2H-chromen-3-yl)amino]propyl}-1H-indole-5-carbonitrile] | – | – | –
8.12 | 6.66 | 81 | – | 0 | 7.84 | 6.97 | 36 | COc1cccc2c1CC(N(CCCc1c[nH]c3ccc(C#N)cc13)C1CCC1)CO2 (stereo not shown) [Compound 46, 3-{3-[cyclobutyl(5-methoxy-3,4-dihydro-2H-chromen-3-yl)amino]propyl}-1H-indole-5-carbonitrile] | 6.05 | – | –
8.67 | – | – | 8.46 | 91.5 | 8.39 | 7.98 | 100 | CCCN(CCCc1c[nH]c2ccc(F)cc12)C1CCc2cccc(OC)c2C1 (stereo not shown) [Compound 47, N-[3-(5-fluoro-1H-indol-3-yl)propyl]-N-(8-methoxy-1,2,3,4-tetrahydronaphthalen-2-yl)-N-propylamine] | – | – | –
9.08 | – | – | 8.12 | 99 | 8.81 | 8.25 | 80.5 | CCCN(CCCc1c[nH]c2ccc(F)cc12)[C@H]1CCc2cccc(OC)c2C1 [Compound 47a, (−)-N-[3-(5-fluoro-1H-indol-3-yl)propyl]-8-methoxy-N-propyl-1,2,3,4-tetrahydronaphthalen-2-amine] | – | – | –
8.96 | – | – | 8.81 | 100 | 9.47 | 7.71 | 87 | CCCN(CCCc1c[nH]c2ccc(F)cc12)[C@@H]1CCc2cccc(OC)c2C1 [Compound 47b, (2R)-N-[3-(5-fluoro-1H-indol-3-yl)propyl]-8-methoxy-N-propyl-1,2,3,4-tetrahydronaphthalen-2-amine] | – | – | –
7.85 | – | – | 8.60 | 98 | 8.67 | 8.40 | 90 | CCCN(CCCc1c[nH]c2ccccc12)C1CCc2cccc(OC)c2C1 (stereo not shown) [Compound 50, N-[3-(1H-indol-3-yl)propyl]-8-methoxy-N-propyl-1,2,3,4-tetrahydronaphthalen-2-amine] | – | – | –
8.62 | – | – | 7.89 | 83 | 7.94 | 7.82 | 95 | CCCN(CCCc1c[nH]c2ccc(F)cc12)C1CCc2c(F)ccc(OC)c2C1 (stereo not shown) [Compound 51, N-[3-(5-fluoro-1H-indol-3-yl)propyl]-N-(5-fluoro-8-methoxy-1,2,3,4-tetrahydronaphthalen-2-yl)-N-propylamine] | – | – | –
